Measurements as given in patent US11173156B2, “Solid forms of a kynurenine-3-monooxygenase inhibitor” (CHDI Foundation, Inc., priority 2019, dated 2021).

Legend:
Assay type in all cases: physicochemical
[1] = Stability at elevated temperatures (XRPD, HPLC)
Experimental: The stability of Compound I sodium Patterns A, C, and D and Form B, at about 60° C. was evaluated. These forms were weighed into vials covered with a Kimwipe tissue and stored in an oven at 60° C. and ambient pressure. After three days and ten days of exposure, the solids were analyzed by XRPD to check for form conversion. […].

[2] = Slurry experiments (form stability)
Experimental: Solutions were prepared by adding enough solids to a given solvent so that excess solids were present. The mixture was then agitated in a sealed vial at either ambient or an elevated temperature. After a given amount of time, the solids were isolated for analysis.
The formation and stability of solid forms of the sodium salt of Compound I was further evaluated via slurry experiments. The slurries were formed by combining Compound I sodium Pattern A and a solvent, and allowing the slurry to equilibrate at room temperature. If a free flowing slurry was not achieved, an additional amount of the respective solvent was added before the room temperature equilibration step. All slurries were isolated via centrifuge filtration after five days and twelve days of equilibration. The solids were analyzed by XRPD to check for pattern conversion (Table 13).

[3] = Dynamic vapor sorption/desorption (DVS)
Experimental: Moisture sorption/desorption data were collected on a VTI SGA-100 Vapor Sorption Analyzer. NaCl and PVP were used as calibration standards. Samples were not dried prior to analysis. Sorption and desorption data were collected over a range from 5% to 95% RH at 10% RH increments under a nitrogen purge. The equilibrium criterion used for analysis was less than 0.0100% weight change in 5 minutes with a maximum equilibration time of 3 hours. Data were not corrected for the initial moisture content of the samples.

With `O=C(O)c1cc(-c2ccc(OC3CC3)c(Cl)c2)ncn1` [Compound I sodium Pattern C, 6-(3-chloro-4-cyclopropoxyphenyl)pyrimidine-4-carboxylic acid] the “chemical and physical form changes after storing at elevated temperature” value ([1]; about 60° C.) was “No chemical and physical form changes were observed”, the HPLC ([1]; after storage at 60 ° C. (time point not given)) was >99.9 % AUC and the “form conversion in slurry / trituration” value ([2]; acetone and/or isopropanol (trituration, single form or competitive slurry)) was “converted to Compound I sodium Form B”. The “relative stability of the form (in words)” value ([2]; at the conditions evaluated) was “not stable”, the “time stable in slurry” value ([2]; methanol) was “about 10 days” and the “form conversion in slurry / trituration” value ([2]; solvent systems with high water activity) was “covert to Compound I sodium Form E”. The “hygroscopicity by DVS analysis (in words)” value [3] was “slightly hygroscopic”, the “material recovered from the DVS analysis compared with starting material by XRPD” value ([3]; after DVS) was “substantially the same as the starting material” and the DVS weight gain ([3]; at 60% RH) was “about 1.9%”. For the same compound, the DVS weight gain ([3]; at 90% RH) was “about 8.4%”.
